Assay results reported in patent US20200399238A1, “THERAPEUTIC AURONES” (MIDDLE TENNESSEE STATE UNIVERSITY, priority 2016, published 2020).
Where two headings read alike, the source gives them in different places.

Tests used:
[1] = system: Leishmania amazonensis promastigotes expressing beta-lactamase; assay: microbe, parasite or virus in culture; format: cell-based; details: for IC50: Leishmania amazonensis
[2] = system: rat skeletal muscle cell line, L6; assay: cells; format: cell-based
[3] = system: Trypanosoma cruzi Tulahuen cells expressing beta-galactosidase; assay: T. cruzi intracellular assay (beta-galactosidase, L6 host cells); details: for Selectivity L6/TC-I: Table 3A, estimated from highest L6 dose tested where no L6 IC50; for IC50: Trypanosoma cruzi, TULAHUEN
[4] = system: Trypanosoma brucei brucei 427 cells; assay: T. brucei culture and assay (PrestoBlue); format: cell-based
[5] = system: C. albicans (ATCC strain 90028); assay: Antifungal microdilution broth assay (PrestoBlue), C. albicans; format: cell-based, Candida albicans; details: Candida albicans, ATCC90028, Table 4B; C. albicans; 100 μM; value ± spread; read-out: Percent Inhibition (at 100 μM)
Experimental: Sigma-Aldrich) was used as the base medium for testing. […] solution of morpholinepropanesulfonic acid (MOPS; Sigma-Aldrich) was added to the RPMI to a final concentration of 0.165 M for buffering (RPMI-MOPS). This medium was adjusted to a pH of 7.0 with 10 M NaOH and filter sterilized. C. albicans (ATCC strain 90028), C. [NT] strain 66032), and C. tropicalis (ATCC strain 750) were cultured on potato dextrose agar (Sigma-Aldrich) plates, and incubated at 35° C. for 24 hours. For antifungal testing, overnight colonies were adjusted to 1.5×10^3 cells/mL, hereafter referred to as the test inoculum. PrestoBlue® (Life Technologies, Invitrogen, Carlsbad, Calif.), a resazurin-based cell viability reagent that, in metabolically active cells, is reduced from blue, non-fluorescent resazurin, to red, fluorescent resorufin, was used to assess inhibition of yeast growth by the aurones. […] Following addition of aurone, plates were then incubated for 24 hours at 35° C. PrestoBlue was added to a final concentration of 10% in each well and fluorescence read at 560 nm excitation and 590 nm emission, per manufacturer instructions, using a SpectraMax M2e spectrophotometer (Molecular Devices, LLC, Sunnyvale, Calif.). To optimize the PrestoBlue reduction time, RFUs were collected at 15 minute intervals for 4 hours using a reference antifungal. […] IC50 determination was calculated using GraphPad Prism version 7.01 for Windows (GraphPad Software, Inc., La Jolla, Calif.) from the RFUs at dilution points. Calculations were made with a nonlinear regression after transforming the molar concentrations of the aurones into the logarithmic form. Graphing was accomplished utilizing the same program following a four parameter curve fitting sigmoidal plot of the data. All aurones and controls were tested in triplicate and all testing was repeated in at least three independent experiments.

[6] = Table 2, L6 IC50 / L. amazonensis IC50
[7] = Rattus norvegicus, Table 1, read-out: IC50 Toxicity (L6)
[8] = Rattus norvegicus, Table 3A, weighted means of two or more independent trials, read-out: IC50 L6
[9] = Table 1, intracellular T. cruzi IC50
[10] = Table 2, L6 IC50 / T. cruzi IC50 (intracellular assay)
[11] = read-out: IC50 T. cruzi, Table 1, intracellular assay, mean of 2(+) trials (^c one trial)
[12] = read-out: IC50 T. cruzi, Table 2, intracellular assay, mean of 2(+) independent trials
[13] = read-out: IC50 TC-I, Table 3A, weighted means of two or more independent trials
[14] = Trypanosoma brucei, Table 1, mean of 2(+) independent trials, read-out: IC50 T. brucei
[15] = Rattus norvegicus, Table 3B, weighted means of two or more independent trials, read-out: IC50 L6
[16] = read-out: IC50 TC-I, Table 3B, weighted means of two or more independent trials

SMILES | IC50 ([1]; read-out: IC50 L. amaz.) [µM] | IC50 [2, 7] [µM] | IC50 [2, 8] [µM] | melting point [°C] | IC50 [3, 11] [µM] | IC50 [3, 12] [µM] | IC50 [3, 13] [µM] | IC50 [4, 14] [µM] | also measured
O=C1/C(=C/c2ccc(I)cc2)Oc2ccccc21 [Aurone 9029, (Z)-2-(4-iodobenzylidene)benzofuran-3(2H)-one] | 3.11 | > 100 | > 100 | 176 to 179 | 11.1 | 11.1 | 11.1 | > 50 | Selectivity L6/La ([1]; Table 1): >32.15; Selectivity L6/La [1, 6]: >32.15; IC50 ([2]; Table 2, L6 mammalian cells, read-out: IC50 Toxicity (L6)): > 100 µM; Selectivity L6/Tc [3, 9]: >9.04; Selectivity L6/Tc [3, 10]: >9.04; Selectivity L6/TC-I [3]: >9.04; IC50 ([4]; Table 2, mean of 2(+) independent trials, read-out: IC50 T. brucei): > 50 µM
O=C1/C(=C/c2sccc2Br)Oc2ccccc21 [Aurone 9060] | 1.36 | > 100 | – | 176 to 180 | 34.6 | 34.6 | – | > 50 | IC50 [2, 15]: > 100 µM; IC50 [3, 16]: 34.6 µM
O=C1/C(=C/c2cccs2)Oc2cc(O)ccc21 [Aurone 2901, (Z)-6-hydroxy-2-(thiophen-2-ylmethylene)benzofuran-3(2H)-one] | 19.4 | > 100 | – | 300 to 303 | > 50 | – | – | > 50 | –
COc1cc(/C=C2\Oc3ccccc3C2=O)ccc1O [Aurone 9053, (Z)-2-(4-hydroxy-3-methoxybenzylidene)benzofuran-3(2H)-one] | 2.15 | > 200 | – | – | > 50 | > 50 | – | > 50 | inhibition at 100 µM [5]: 11.2 ± 2.2%
Cc1ccccc1/C=C1\Oc2ccccc2C1=O [Aurone 9057, (Z)-2-(2-methylbenzylidene)benzofuran-3(2H)-one] | < 1 | 99.6 | – | 89 to 93 | 26.3 | 26.3 | – | 24.4 | –
COC(=O)c1ccc(/C=C2\Oc3ccccc3C2=O)cc1 [Aurone 9047, Methyl (Z)-4-((3-oxobenzofuran-2(3H)-ylidene)methyl)benzoate] | 24.2 | > 100 | > 100 | 144 to 147 | > 50 | – | > 50 | > 50 | Selectivity L6/La ([1]; Table 1): >4.13
O=C1/C(=C/c2cc(Br)c(Br)s2)Oc2ccccc21 [Aurone 9050, (Z)-2-((4,5-dibromothiophen-2-yl)methylene)benzofuran-3(2H)-one] | 9.24 | > 100 | – | 185 to 190 | > 50 | > 50 | – | > 50 | IC50 [2, 15]: > 100 µM; IC50 [3, 16]: > 50 µM
COc1ccc(/C=C2\Oc3ccccc3C2=O)cc1O [Aurone 9078, (Z)-2-(3-hydroxy-4-methoxybenzylidene)benzofuran-3(2H)-one] | 1.45 | 70.7 | – | – | – | – | – | 41.2 | inhibition at 100 µM [5]: 45.6 ± 2.6%
Cc1ccc(/C=C2\Oc3ccc(Br)cc3C2=O)cc1 [Aurone 6000, (Z)-5-bromo-2-(4-methylbenzylidene)benzofuran-3(2H)-one] | 8.43 | > 100 | – | 115 to 120 | > 50 | > 50 | – | > 50 | –
O=C1/C(=C/c2ccccc2Br)Oc2ccccc21 [Aurone 9006, (Z)-2-(2-bromobenzylidene)benzofuran-3(2H)-one] | < 1 | 226 | 226 | 134 to 140 | 21.3 | 21.3 | 21.3 | 28.3 | IC50 ([1]; read-out: IC50 L. amaz. (footnote c: value obtained from one trial)): < 1 µM; Selectivity L6/La ([1]; Table 1): >226.08; Selectivity L6/La [1, 6]: >226.08; Selectivity L6/Tc [3, 9]: 10.61; Selectivity L6/Tc [3, 10]: 10.61; Selectivity L6/TC-I [3]: 10.61; Selectivity L6/Tb ([4]; Table 1): 7.98; Selectivity L6/Tb ([4]; Table 2, L6 IC50 / T. brucei IC50): 7.98; Selectivity L6/Tb ([4]; Table 3A, estimated from highest L6 dose tested where no L6 IC50): 7.98
O=C1/C(=C/c2cccc3[nH]ccc23)Oc2ccccc21 [Aurone 9063, (Z)-2-((1H-indol-4-yl)methylene)benzofuran-3(2H)-one] | 1.13 | 94 | – | 230 to 238 | 18.9 | 18.9 | – | > 50 | IC50 [2, 15]: 94 µM; IC50 [3, 16]: 18.9 µM
Cc1ccc(/C=C2\Oc3ccccc3C2=O)cc1 [Aurone 8c, (Z)-2-(4-methylbenzylidene)benzofuran-3(2H)-one] | – | – | – | 75 to 76 | – | – | – | – | activity against T. cruzi [3]: effective against T. cruzi only; IC50 ([3]; read-out: T. cruzi IC50 dose): < 10 µM; IC50 ([4]; Trypanosoma brucei, read-out: T. brucei IC50 dose): > 50 µM
O=C1/C(=C/c2cc(Br)ccc2Br)Oc2ccccc21 [Aurone 3003, (Z)-2-(2,5-dibromobenzylidene)benzofuran-3(2H)-one] | 16 | > 100 | > 100 | 181 to 182 | > 50 | – | > 50 | > 50 | Selectivity L6/La ([1]; Table 1): >6.24
O=C1/C(=C/c2ccccc2I)Oc2ccccc21 [Aurone 9003, (Z)-2-(2-iodobenzylidene)benzofuran-3(2H)-one] | – | > 100 | > 100 | 145 to 148 | 15.4 | – | 15.4 | > 50 | Selectivity L6/Tc [3, 9]: >6.50; Selectivity L6/TC-I [3]: >6.50
COc1cccc(/C=C2\Oc3ccccc3C2=O)c1O [Aurone 9055, (Z)-2-(2-hydroxy-3-methoxybenzylidene)benzofuran-3(2H)-one] | 18.5 | > 100 | – | – | > 50 | – | – | > 50 | inhibition at 100 µM [5]: 16.7 ± 0.2%
COc1cc(OC)c2c(c1)O/C(=C\c1ccc(C)cc1)C2=O [Aurone 7000, (Z)-4,6 dimethoxy-2-(4-methylbenzalidene) benzofuran-3(2H)-one] | – | – | – | 145 to 148 | – | – | – | – | –
